The source made the active and inactive calls. The rule behind the calls is not given here.

The test concerns S. cerevisiae TIM10 counterscreen strain, luminescence. The test can be described thus: TIM10 counterscreen strain luminescent signal reducers – S. cerevisiae, uHTS hits, counter-screen for tim10-1 inhibitor project, dose response (AID 504542).
One may read the IC50 as the concentration that inhibits the measured activity by half. Regarding `Nc1nc(-c2ccc(Br)cc2)cs1`, the IC50 was 10.4 µM.

On to `O=c1c2ccccc2nc(/C=C/c2ccc([N+](=O)[O-])o2)n1CCCO`, for which the IC50 is 4.49 µM.

`Cc1ccc(NC(=S)Nc2ccc(Cl)c(Cl)c2)c(OC(F)F)c1`: the IC50 was 9.07 µM.

For the compound `CCOC(=O)c1ccc(N2C(=O)C=CC2=O)cc1`, the IC50 is 0.41 µM.

For the compound `Nc1c(C(=O)Nc2ccccc2)c2nc3ccccc3nc2n1CCCN1CCOCC1`, the IC50 is 9.74 µM.

As for `CCCCCCCCCCOC(=O)Cn1c(COc2ccccc2OC)[n+](C)c2ccccc21`, the IC50 was 8.06 µM.

For the compound `CN=C(Nc1cc(Cl)ccc1Cl)SC1CC(=O)N(c2ccc(C(=O)OC)cc2)C1=O` (stereo unspecified), the IC50 was 6.33 µM.

Turning to `CCOc1ccccc1N1C(=O)CC(Sc2n[nH]c(-c3ccccc3)n2)C1=O` (stereo unspecified), the IC50 is 2.27 µM.

As for `O=C(c1ccc2c3n(nc2c1)-c1ccccc1CO3)N1CCCCC1`, the IC50 was 8.99 µM.

Consider `N=C(N)c1ccc(/C=C/c2ccc(C(=N)N)cc2O)cc1`, for which the IC50 was 4.36 µM.

Regarding `O=S(=O)(CCN(CCS(=O)(=O)C(F)(F)F)CC1CCCO1)C(F)(F)F` (stereo unspecified), the IC50 is 5.4 µM.

As to `CC1=C/C(=N\OS(=O)(=O)c2ccccc2)C(C)=CC1=O`, the IC50 was less than 0.2 µM.

For `C=CC(=O)Oc1ccc(N2Cc3ccccc3C2=O)cc1`, the IC50 was 2.89 µM.

In the case of `N/C(=N\OC(=O)CCC1CCCC1)c1cccc([N+](=O)[O-])c1`, the half-maximal inhibitory concentration (IC50) is 8.32 µM.

For the compound `c1ccc(Nc2cccc(Nc3ccccc3)c2)cc1`, the IC50 is 5.02 µM.

Turning to `CCOC(=O)c1c(OCC)[nH]c2c1cc(O)c1ccccc12`, the IC50 was 8.27 µM.

Consider `COc1ccc(C(=O)O/N=C(\N)c2ccc(Cl)cc2)cc1`, for which the IC50 was 4.07 µM.

In the case of `NNc1nc(-c2ccccc2)c2cc(Br)ccc2n1`, the IC50 was 15.9 µM.

With `CC(=O)N1CCN(c2cc(N3CCc4ccccc4C3)c(F)cc2[N+](=O)[O-])CC1`, the IC50 was 19.6 µM.

In the case of `Cc1ccc(NC2=C/C(=N\S(=O)(=O)c3cccs3)c3ccccc3C2=O)c(C)c1`, the IC50 was 3.94 µM.

Turning to `O=C(NNC(=S)Nc1cccc(C(F)(F)F)c1)c1ccc(Cl)cc1Cl`, the IC50 is 8.13 µM.

As for `Cn1c(/C=C/c2ccc([N+](=O)[O-])o2)nc2ccccc2c1=O`, the IC50 was 4.94 µM.

With `COC(=O)C(C(C)=O)C1=C/C(=N\S(=O)(=O)c2ccc(C)cc2)c2ccccc2C1=O` (stereo unspecified), the IC50 is 3.81 µM.

On to `O=C(/C=C\c1ccc(-c2ccccc2)o1)c1ccccc1`, for which the IC50 was 2.39 µM.

As for `Cc1ccc(F)c([C@H]2[C@@H]3C=CCC[C@@]3(C)C(=O)N2Cc2ccccc2)c1`, the IC50 was 7.6 µM.

For the compound `Cc1ccc(F)c([C@H]2C3C=CCC(c4ccccc4)C3C(=O)N2Cc2ccccc2)c1` (stereo partly specified), the IC50 is 6.99 µM.

In the case of `CCOC(=O)c1ccc(NC(=O)CC2OCCN(CC)C2=O)cc1` (stereo unspecified), the IC50 was 1.28 µM.

`O=C(Nc1cccc(N2C(=O)C=CC2=O)c1)c1cccs1`: the IC50 is 2.61 µM.

As for `N/C(Cc1ccc(Cl)cc1)=N\OC(=O)c1ccc2ccccc2c1`, the IC50 is 0.26 µM.

For `Cc1ccc(/C(N)=N/OC(=O)c2ccc3c(c2)OCO3)cc1`, the IC50 was 2.42 µM.

Turning to `O=C(NNC(=S)Nc1cccc(C(F)(F)F)c1)c1cccc(Cl)c1`, the IC50 is 9.48 µM.

On to `CC(C)(C)c1ccc(CN2N=Nc3ccccc3S2(=O)=O)cc1`, for which the IC50 is 2.99 µM.

Turning to `COc1cc(/C=C/c2ccc3cccc(O)c3n2)c(Br)cc1O`, the IC50 is 9.2 µM.

Take `CCOC(=O)c1ccc(N=c2ssnc2Cl)cc1`: the IC50 was 1.87 µM.

As for `Nc1nc(N)c(C=Nc2ccc(Br)cc2)c(Nc2ccc(Br)cc2)n1`, the IC50 was 10.8 µM.

As for `COC(=O)c1c(N2C(=O)CC(Sc3ccccc3C(=O)O)C2=O)sc2c1CCCC2` (stereo unspecified), the IC50 was 1.49 µM.

For `CCOC(=O)c1c(CSc2ccc(C)cc2)n(C)c2cc(Br)c(O)c(CN(C)C)c12`, the IC50 is 12.8 µM.

Take `Cc1nc(Nc2ccccc2)sc1-c1ccccc1`: the IC50 was 3.09 µM.

In the case of `CCCOc1ccccc1NC(=O)/C=C/C(N)=O`, the IC50 was 0.87 µM.

As to `Cc1cc([N+](=O)[O-])ccc1-c1ccc(C2Nc3ccccc3C(=O)N2O)o1` (stereo unspecified), the IC50 was 9.76 µM.

Take `Cc1ccc(CNC(=O)c2ccc(Cn3nc(C)c(Cl)c3C)o2)cc1`: the IC50 was 10.1 µM.

In the case of `COc1ccc(Cl)cc1NC(=O)CN(C)C(=O)C12CC3CC(CC(Cl)(C3)C1)C2`, the IC50 was 12 µM.

As for `Cc1ccc(S(=O)(=O)c2nc(S(C)(=O)=O)sc2N2CCCCC2C)cc1` (stereo unspecified), the IC50 is 2.35 µM.

Take `COc1cc(OC)c(C(=O)O/N=C(\N)c2ccc(C)cc2)cc1OC`: the IC50 was 5.99 µM.

Consider `Cc1ccccc1/C=C/C(=O)c1ccc([N+](=O)[O-])o1`, for which the IC50 was 0.66 µM.

Take `Clc1ccc(CNc2nc(CN3CCOCC3)nc3scc(-c4ccccc4)c23)cc1`: the IC50 was 4.96 µM.

With `CCCn1c(CC)nc([N+](=O)[O-])c1S(=O)(=O)c1ccccc1`, the IC50 is 2.72 µM.

As to `CCCCNC(=S)Nc1ccc(C(F)(F)F)cc1`, the IC50 was 9.88 µM.

Consider `O=[N+]([O-])c1ccccc1N/N=C/c1c[nH]c2ccccc12`, for which the IC50 was 5.11 µM.

On to `S=C(NCCCc1ccccc1)Nc1ccc(Cl)cc1`, for which the IC50 is 3.88 µM.

In the case of `CCOC(=O)c1cc(-c2cccs2)nc2c1c(C)nn2-c1ccccn1`, the IC50 was 8.92 µM.

As for `COc1ccc2cc3cc(C(=O)NCCN4CCc5ccccc5C4)oc3nc2c1`, the IC50 was less than 0.2 µM.

Regarding `Cn1c(Cl)cnc1C1CC(=O)c2cc(Cl)ccc2O1` (stereo unspecified), the IC50 is 1.98 µM.

Turning to `c1ccc(Nc2cccc(Nc3ccccc3)n2)cc1`, the 50% inhibitory concentration (IC50) was 5.97 µM.

Turning to `CCOC(=O)/C=C/C(=O)OCC(=O)Nc1ccc([N+](=O)[O-])cc1`, the IC50 was 3.98 µM.

As to `COc1ccc(/C(C)=N/NC(=S)NCCc2ccccc2)cc1`, the IC50 was 7.83 µM.

As for `Fc1ccc(CNC(=S)Nc2cccc(C(F)(F)F)c2)cc1`, the IC50 was 8.8 µM.

For `Fc1c(F)c(C(F)(F)F)c(F)c(F)c1N/N=C\c1cccs1`, the half-maximal inhibitory concentration (IC50) is 4 µM.

On to `Cc1ccc(/C(N)=N/OC(=O)C(C)c2ccc([N+](=O)[O-])cc2)cc1` (stereo unspecified), for which the IC50 is 22 µM.

Regarding `COc1ccc(-c2[nH]ncc2N=Nc2ccccc2)cc1`, the IC50 was 5.88 µM.

Take `CC(=O)c1ccc(NC(=S)NC(C)c2ccc(Cl)cc2Cl)cc1` (stereo unspecified): the IC50 is 9.11 µM.

Take `COc1ccc(-c2nncnn2)cc1`: the IC50 is 3.43 µM.

Consider `O=C(O)/C=C/C(=O)c1ccc2c(c1)CCc1ccccc1-2`, for which the IC50 is 3.32 µM.

For the compound `CC(C)CN(CC(C)C)C(=S)Nc1ccc(Cl)cc1`, the IC50 was 11 µM.

Regarding `C/C(=N\NC(=S)NCc1ccccc1)c1ccc(Cl)s1`, the IC50 was 11.6 µM.

As for `O=C(N/N=C/c1ccc[nH]1)c1cc(-c2ccc(Cl)cc2)nc2ccccc12`, the IC50 was 4.98 µM.

On to `Cc1ccc(OCC(=O)O/N=C(\N)Cc2ccc(Cl)cc2)cc1`, for which the IC50 is 56.7 µM.

For `O=C1CS(=O)(=O)N(Cc2cccc(F)c2)c2ccc(Br)cc21`, the IC50 is 4.69 µM.

`Cc1ccc(NC(=O)c2ccc(Cl)c(N3C(=O)C=CC3=O)c2)cc1`: the IC50 is 4.36 µM.

For `COc1cc(C(=O)Nc2ccc(Cl)c(C(F)(F)F)c2)cc(OC)c1OC`, the IC50 was 27.1 µM.

Consider `N/C(=N\OC(=O)c1ccc(F)cc1)c1ccc(Br)cc1`, for which the IC50 is > 100 µM (inactive).

As to `COc1ccc(-n2cc(-c3ccccc3)c3c(=S)nc[nH]c32)cc1`, the IC50 was > 100 µM (inactive).

Take `CC[C@@H]1CC=C[C@H]2[C@H]1C(=O)N(Cc1ccccc1)[C@H]2c1ccoc1`: the IC50 is 2.5 µM.

In the case of `Cc1ccccc1OCC(=O)Nc1ccc(S(=O)(=O)N2CCCC2)cc1`, the IC50 is 5.36 µM.

With `N#C/C(=N/Nc1ccc(OC(F)(F)F)cc1)C(N)=S`, the IC50 was 1.22 µM.

As for `COc1ccc(-c2cc(C3CC3)nc3sc(C#N)c(N)c23)cc1`, the IC50 is 4.46 µM.

Regarding `N/C(Cc1ccc(Cl)cc1Cl)=N\OC(=O)Cc1ccc(Cl)cc1`, the IC50 is 0.74 µM.

`CC(C)C(c1nnnn1C1CCCC1)N1CCCc2ccccc21` (stereo unspecified): the IC50 was 5.94 µM.

As to `Cc1nonc1C1CCCN1C(=O)c1cc(COc2cccc(C(F)(F)F)c2)on1` (stereo unspecified), the IC50 is 9.73 µM.

`CCOc1ccc(-n2cc(-c3ccccc3)c3c(=O)[nH]cnc32)cc1`: the IC50 is 5.89 µM.

Take `N/C(=N\OC(=O)c1ccc(Cl)cc1)c1ccc(Cl)cc1`: the IC50 is > 100 µM (inactive).

Consider `COc1ccc(-c2sc3cc4c(cc3c2C#CC2(N)CCCCC2)OCO4)cc1`, for which the IC50 was 8.21 µM.

Turning to `CCSc1nc2ccccc2n1C(=O)/C=C\c1ccc(OC)c(OC)c1`, the IC50 was 7.72 µM.

For the compound `O=C(Nc1cccnc1)c1cn(-c2ccccc2)nc1-c1cccs1`, the IC50 was 8.73 µM.

In the case of `O=C1CC(Sc2nnnn2-c2ccccc2)C(=O)N1c1cccc(Cl)c1` (stereo unspecified), the IC50 is 1.72 µM.

For `COc1ccc(Br)cc1[C@H]1[C@H]2C=CC[C@@H](C)[C@@H]2C(=O)N1Cc1ccccc1`, the IC50 is 6.86 µM.

With `Cc1cc(/C=C\c2ccc3cc(N(C)C)ccc3[n+]2C)c(C)n1-c1ccccc1`, the IC50 was 3.92 µM.

As to `O=C(OCn1ncc(Br)c(Br)c1=O)c1ccccc1Cl`, the IC50 was 1.41 µM.

With `COc1ccc(/C=C/C(=O)c2ccccc2)cc1Cn1nnc2ccccc21`, the IC50 is 3.86 µM.

As to `COc1ccc(C(=O)O/N=C(\N)c2ccccc2Cl)cc1OC`, the IC50 is 9.27 µM.

Take `O=C(NC(=S)NNC(=O)c1ccccc1[N+](=O)[O-])c1ccc(Br)cc1`: the IC50 was 6.64 µM.

As to `CCOC(=O)/C=C/C(=O)Nc1cccc([N+](=O)[O-])c1`, the IC50 was 1.9 µM.

Consider `O=c1c2ccccc2[se]n1-c1ccccc1`, for which the IC50 was 0.58 µM.

On to `CCN(CC)C1CC(=O)N(c2cccc(Cl)c2)C1=O` (stereo unspecified), for which the IC50 was 1.74 µM.

As for `COc1ccc(Br)cc1[C@H]1[C@@H]2C=CCC[C@@]2(C)C(=O)N1Cc1ccccc1`, the IC50 was 6.12 µM.

For `CC(C)Nc1nnc(Sc2ccc(Cl)cc2[N+](=O)[O-])s1`, the IC50 is 2.28 µM.

Regarding `COc1ccc(Cl)cc1NC(=S)NCCc1ccc(F)cc1`, the IC50 is 11.3 µM.

With `CN(CCCC(=O)O)c1ccc(N=Nc2ccc([N+](=O)[O-])cc2)cc1`, the IC50 is 14.5 µM.

With `Cc1ccc(NC(=O)c2cc(S(=O)(=O)NCCC3=CCCCC3)ccc2F)cc1`, the IC50 was 12.3 µM.

For `CCCCc1ccc(NC(=S)Nc2ccc(Nc3ccc(OC)cc3)cc2)cc1`, the IC50 was 12.4 µM.

For `O=C1C2C3C=CC(CO)(O3)C2C(=O)N1c1ccccc1-c1ccccc1` (stereo unspecified), the IC50 was 1.27 µM.
